Patent US10647713B2 (Nimbus Lakshmi, Inc., priority 2016, dated 2020)

target: human TYK2 (JH2domain-pseudokinase) (Homo sapiens (Human), UniProt P29597); experiment: TYK2 JH2 Domain Binding Assay (KINOMEscan, DiscoveRx); settings: 11-point dilution, duplicate
Outline: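 Kd from duplicate 11-point 3-fold dilutions starting at 30,000 nM, fitted by Hill equation with slope fixed at −1. Compounds (final 0.9% DMSO) displace DNA-tagged HEK293-expressed TYK2 JH2 fusion (<0.1 nM) from ligand-coated beads over 1 h at room temperature; eluted kinase read by qPCR.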

human TYK2 (JH2domain-pseudokinase), sequence (P29597 556-888): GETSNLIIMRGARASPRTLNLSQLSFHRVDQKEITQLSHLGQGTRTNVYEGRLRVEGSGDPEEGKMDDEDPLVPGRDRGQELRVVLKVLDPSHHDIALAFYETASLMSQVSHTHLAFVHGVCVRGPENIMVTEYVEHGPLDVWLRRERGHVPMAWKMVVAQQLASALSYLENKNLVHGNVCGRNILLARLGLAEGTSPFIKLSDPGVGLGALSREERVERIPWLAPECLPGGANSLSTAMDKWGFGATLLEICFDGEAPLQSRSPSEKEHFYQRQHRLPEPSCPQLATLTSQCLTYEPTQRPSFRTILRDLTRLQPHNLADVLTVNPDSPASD

SMILES | Kd [nM]
CS(=O)(=O)c1cc(C2COCCO2)ccc1Nc1cc(NC(=O)C2CC2)nc2[nH]c(C(F)F)nc12 (stereo not shown) [I-588, N-(7-((4-(1,4-dioxan-2-yl)-2-(methylsulfonyl)phenyl)amino)-2-(difluoromethyl)-3H-imidazo[4,5-b]pyridin-5-yl)cyclopropanecarboxamide] | 0.1 to 0.5
COc1cc(-c2cc(C)n(C)n2)ccc1Nc1cc(NC(=O)C2CC2)nc2[nH]c(C(F)F)nc12 [I-589, N-(2-(difluoromethyl)-7-((4-(1,5-dimethyl-1H-pyrazol-3-yl)-2-methoxyphenyl)amino)-3H-imidazo[4,5-b]pyridin-5-yl)cyclopropanecarboxamide] | 1 to 10
Cc1nc2c(Nc3ccc([C@H]4CCC(C)(C)O4)cc3S(C)(=O)=O)cc(NC(=O)C3CC3)nc2[nH]1 [I-591, (R)—N-(7-((4-(5,5-dimethyltetrahydrofuran-2-yl)-2-(methylsulfonyl)phenyl)amino)-2-methyl-3H-imidazo[4,5-b]pyridineyl)cyclopropanecarboxamide] | 0.1 to 0.5
Cc1nc2c(Nc3ccc([C@@H]4CCC(C)(C)O4)cc3S(C)(=O)=O)cc(NC(=O)C3CC3)nc2[nH]1 [I-592, (S)—N-(7-((4-(5,5-dimethyltetrahydrofuran-2-yl)-2-(methylsulfonyl)phenyl)amino)-2-methyl-3H-imidazo[4,5-b]pyridin-5-yl)cyclopropanecarboxamide] | 0.5 to 1
CS(=O)(=O)c1cc([C@H]2CCC(F)(F)CO2)ccc1Nc1cc(NC(=O)C2CC2)nc2[nH]c(C(F)F)nc12 [I-593, (R)—N-(2-(difluoromethyl)-7-((4-(5,5-difluorotetrahydro-2H-pyran-2-yl)-2-(methylsulfonyl)phenyl)amino)-3H-imidazo[4,5-b]pyridin-5-yl)cyclopropanecarboxamide] | 1 to 10
CS(=O)(=O)c1cc([C@@H]2CCC(F)(F)CO2)ccc1Nc1cc(NC(=O)C2CC2)nc2[nH]c(C(F)F)nc12 [I-594, (S)—N-(2-(difluoromethyl)-7-((4-(5,5-difluorotetrahydro-2H-pyran-2-yl)-2-(methylsulfonyl)phenyl)amino)-3H-imidazo[4,5-b]pyridin-5-yl)cyclopropanecarboxamide] | 0.1 to 0.5
COc1c(Nc2cc(Nc3cccc(C#N)n3)nc3[nH]c(C(F)F)nc23)cccc1-c1noc(C)n1 [I-598, 6-((2-(difluoromethyl)-7-((2-methoxy-3-(5-methyl-1,2,4-oxadiazol-3-yl)phenyl)amino)-3H-imidazo[4,5-b]pyridin-5-yl)amino)picolinonitrile] | 0.5 to 1
Cc1nc2c(Nc3ccc(C4CCC(C)(C)CO4)cc3S(C)(=O)=O)cc(Nc3cnc(C)c(C)n3)nc2[nH]1 (stereo not shown) [I-601, N5-(5,6-dimethylpyrazin-2-yl)-N7-(4-(5,5-dimethyltetrahydro-2H-pyran-2-yl)-2-(methylsulfonyl)phenyl)-2-methyl-3H-imidazo[4,5-b]pyridine-5,7-diamine] | 0.5 to 1
Cc1nc2c(Nc3ccc(C4COCCO4)cc3S(C)(=O)=O)cc(NC(=O)C3CC3)nc2[nH]1 (stereo not shown) [I-604, N-(7-((4-(1,4-dioxan-2-yl)-2-(methylsulfonyl)phenyl)amino)-2-methyl-3H-imidazo[4,5-b]pyridin-5-yl)cyclopropanecarboxamide] | 0.1 to 0.5
Cc1ncc(Nc2cc(Nc3ccc(C4CCC(C)(C)CO4)cc3S(C)(=O)=O)c3nc(C(F)F)[nH]c3n2)nc1C (stereo not shown) [I-605, 2-(difluoromethyl)-N5-(5,6-dimethylpyrazin-2-yl)-N7-(4-(5,5-dimethyltetrahydro-2H-pyran-2-yl)-2-(methylsulfonyl)phenyl)-3H-imidazo[4,5-b]pyridine-5,7-diamine] | 0.1 to 0.5
Cc1nc2c(Nc3ccc([C@H]4CCC(C)(C)CO4)cc3S(C)(=O)=O)cc(Nc3cnc(C)c(C)n3)nc2[nH]1 [I-609, (R)—N5-(5,6-dimethylpyrazin-2-yl)-N7-(4-(5,5-dimethyltetrahydro-2H-pyran-2-yl)-2-(methylsulfonyl)phenyl)-2-methyl-3H-imidazo[4,5-b]pyridine-5,7-diamine] | 0.1 to 0.5

Other lines, results leading:

Kd [nM] | SMILES
1 to 10 | COc1cc(-c2cc(C)n(C)n2)ccc1Nc1cc(NC(=O)C2CC2)nc2[nH]c(C)nc12 [I-590, N-(7-((4-(1,5-dimethyl-1H-pyrazol-3-yl)-2-methoxyphenyl)amino)-2-methyl-3H-imidazo[4,5-b]pyridin-5-yl)cyclopropanecarboxamide]
0.1 to 0.5 | Cc1nc2c(Nc3ccc([C@H]4CCCO4)cc3S(C)(=O)=O)cc(Nc3ccc(C(C)C)c(C#N)n3)nc2[nH]1 [I-595, (R)-3-isopropyl-6-((2-methyl-7-((2-(methylsulfonyl)-4-(tetrahydrofuran-2-yl)phenyl)amino)-3H-imidazo[4,5-b]pyridin-5-yl)amino)picolinonitrile]
0.5 to 1 | Cc1nc2c(Nc3ccc([C@@H]4CCCO4)cc3S(C)(=O)=O)cc(Nc3ccc(C(C)C)c(C#N)n3)nc2[nH]1 [I-596, (S)-3-isopropyl-6-((2-methyl-7-((2-(methylsulfonyl)-4-(tetrahydrofuran-2-yl)phenyl)amino)-3H-imidazo[4,5-b]pyridin-5-yl)amino)picolinonitrile]
0.1 to 0.5 | Cc1nc2c(Nc3ccccc3S(C)(=O)=O)cc(Nc3cc4c(nn3)CCC4)nc2[nH]1 [I-597, N5-(6,7-dihydro-5H-cyclopenta[c]pyridazin-3-yl)-2-methyl-N7-(2-(methylsulfonyl)phenyl)-3H-imidazo[4,5-b]pyridine-5,7-diamine]
0.5 to 1 | CS(=O)(=O)c1ccccc1Nc1cc(Nc2cccc(C(F)(F)F)n2)nc2[nH]c(C(F)F)nc12 [I-599]
0.1 to 0.5 | Cc1nc2c(Nc3ccccc3S(C)(=O)=O)cc(Nc3cccc(C(F)(F)F)n3)nc2[nH]1 [I-600, 2-methyl-N7-(2-(methylsulfonyl)phenyl)-N5-(6-(trifluoromethyl)pyridin-2-yl)-3H-imidazo[4,5-b]pyridine-5,7-diamine]
< 0.1 | CS(=O)(=O)c1ccccc1Nc1cc(Nc2cccc(C#N)n2)nc2[nH]c(C(F)F)nc12 [I-602, 6-((2-(difluoromethyl)-7-((2-(methylsulfonyl)phenyl)amino)-3H-imidazo[4,5-b]pyridin-5-yl)amino)picolinonitrile]
0.1 to 0.5 | Cc1nc2c(Nc3ccccc3S(C)(=O)=O)cc(Nc3cccc(C#N)n3)nc2[nH]1 [I-603, 6-((2-methyl-7-((2-(methylsulfonyl)phenyl)amino)-3H-imidazo[4,5-b]pyridin-5-yl)amino)picolinonitrile]
1 to 10 | COc1c(Nc2cc(Nc3cccc(C(F)(F)F)n3)nc3[nH]c(C)nc23)cccc1-c1cnn(C)n1 [I-606, N7-(2-methoxy-3-(2-methyl-2H-1,2,3-triazol-4-yl)phenyl)-2-methyl-N5-(6-(trifluoromethyl)pyridin-2-yl)-3H-imidazo[4,5-b]pyridine-5,7-diamine]
0.1 to 0.5 | CCOc1ccc(Nc2cc(Nc3ccc(F)cc3S(C)(=O)=O)c3nc(C(F)F)[nH]c3n2)nc1C#N [I-607, 6-((2-(difluoromethyl)-7-((4-fluoro-2-(methylsulfonyl)phenyl)amino)-3H-imidazo[4,5-b]pyridin-5-yl)amino)-3-ethoxypicolinonitrile]
0.1 to 0.5 | CCOc1ccc(Nc2cc(Nc3ccc(F)cc3S(C)(=O)=O)c3nc(C)[nH]c3n2)nc1C#N [I-608, 3-ethoxy-6-((7-((4-fluoro-2-(methylsulfonyl)phenyl)amino)-2-methyl-3H-imidazo[4,5-b]pyridin-5-yl)amino)picolinonitrile]
